Legend:
ASK1 [1] = target: T1, ASK1 (Homo sapiens (Human), UniProt Q99683); assay: Homogeneous Time-Resolved Fluorescence (HTRF) assay for inhibitory effect against ASK1 (Example C; KinEASE STK S3 kit); format: biochemical; conditions: 25 nM ASK1, 100 μM ATP, read-out: Enzyme Activity C IC50
Description: (§1) The inhibitory effect of the compound of the invention on ASK1 may be evaluated by evaluating the phosphorylating activity of the enzyme on a known substrate with or without the presence of the test compound. Example B provides such an assay where myelin basic protein (Wako) is used as substrate and detection is by scintillation counting. It should be understood other substrates and detection mechanism may be used. A commercially available a kit, Cisbio's HTRF® KinEASE™ STK kit, has shown to be useful for evaluating ASK1 activity. The assay uses an anti-phosphoseric specific, Eu^3+-Cryptate labeled antibody to mark the phosphorylated product of ASK1 on a biotinylated kinase substrate, and detection is by time resolved fluorescence using XL665 labeled streptavidin. The fluorescence intensity is proportional to the amount of product formation. Example C provides the assay protocol.
Homogeneous Time-Resolved Fluorescence (HTRF) Assay for Measuring the Inhibitory Effect of Exemplified Compounds of the Invention Against ASK1
Recombinant human ASK1 is purchased from Millipore (Cat #14-606). The enzymatic assay of ASK1 is set up by using HTRF® KinEASE™ STK S3 kit, the Universal Assay for Serine/Threonine Kinases kit from CisBio.
The inhibitory properties of compounds to ASK1 may be determined using a white 384-well-plate format under the following reaction conditions: 25 nM ASK1, 1 μM CisBio STK S3-biotion peptide, 100 μM ATP, and 1%-2% DMSO in kinase assay buffer of 50 mM HEPES, pH 7.3, 10 mM NaCl, 10 mM MgCl2, 0.01% Brij35, 0.2 mM EDTA, and 1 mM DTT. Reaction product is determined quantitatively by HTRF after the addition of detection reagent SA-XL665 and STK-antibody-cryptate.
The assay reaction may be initiated as follows: 2 μl of the mixture of 3 μM CisBio STK S3-biotion peptide and 300 μM ATP with 2 μl of test compound (2 fold serial dilutions for 11 data points for each inhibitor) containing 3%-6% DMSO are added to each well of the plate, followed by the addition of 2 μL of 75 nM ASK1 to initiate the reaction (final enzyme concentration was 25 nM for ASK1). The reaction mixture may then be incubated at room temperature for 1 hour, and quenched and developed by the addition of 6 μL of 100-fold diluted STK-antibody-Cryptate and 250 nM SA-XL665 in Cisbio HTRF detection buffer (50 mM HEPES, pH7.0, 0.1% BSA, 0.8 M KF, and 20 mM EDTA). The fluorescence intensity is measured at 620 nm (Cryptate) and 665 nm (XL665) after a 1-2 hour incubation at room temperature. A ratio is calculated (665/620) for each well and is fitted to the standard IC50 curve to determine inhibition constants (IC50).
Target sequence in this assay (Q99683 649-946): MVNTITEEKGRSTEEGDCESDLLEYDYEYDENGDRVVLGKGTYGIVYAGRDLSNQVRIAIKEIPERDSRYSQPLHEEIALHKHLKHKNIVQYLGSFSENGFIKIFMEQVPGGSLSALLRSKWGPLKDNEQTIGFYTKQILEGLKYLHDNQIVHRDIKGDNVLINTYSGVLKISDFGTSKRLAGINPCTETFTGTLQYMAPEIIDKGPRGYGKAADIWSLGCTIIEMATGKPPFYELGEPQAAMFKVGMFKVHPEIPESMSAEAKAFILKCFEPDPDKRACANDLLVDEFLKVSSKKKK

ASK1 [2] = target: T1, ASK1; assay: Scintillation assay for inhibitory effect against ASK1 (Example B; myelin basic protein substrate, [γ-32P]ATP); format: biochemical; conditions: 2.5 μM ATP solution, read-out: Enzyme Activity B IC50
Description: as §1
Target sequence in this assay (Q99683 650-1374): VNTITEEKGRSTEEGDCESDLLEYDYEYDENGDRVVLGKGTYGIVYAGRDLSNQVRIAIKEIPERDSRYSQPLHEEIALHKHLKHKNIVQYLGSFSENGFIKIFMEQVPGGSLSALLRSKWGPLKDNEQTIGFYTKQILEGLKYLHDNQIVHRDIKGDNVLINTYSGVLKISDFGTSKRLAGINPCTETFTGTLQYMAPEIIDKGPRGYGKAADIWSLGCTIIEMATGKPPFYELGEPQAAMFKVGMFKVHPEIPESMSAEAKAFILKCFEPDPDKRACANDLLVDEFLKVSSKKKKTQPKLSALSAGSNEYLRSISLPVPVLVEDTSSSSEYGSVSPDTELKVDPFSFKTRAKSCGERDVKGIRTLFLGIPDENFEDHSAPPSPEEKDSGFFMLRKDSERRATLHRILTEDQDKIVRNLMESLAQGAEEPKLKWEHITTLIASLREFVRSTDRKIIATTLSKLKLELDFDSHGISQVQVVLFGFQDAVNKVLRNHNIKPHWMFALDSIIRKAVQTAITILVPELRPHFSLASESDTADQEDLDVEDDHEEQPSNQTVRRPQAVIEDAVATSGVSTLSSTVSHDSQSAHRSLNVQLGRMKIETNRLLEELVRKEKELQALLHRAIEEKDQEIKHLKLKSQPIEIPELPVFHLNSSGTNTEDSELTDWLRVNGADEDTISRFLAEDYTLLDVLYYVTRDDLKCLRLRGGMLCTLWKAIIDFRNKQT
Cloning of cDNA encoding human ASK1 was conducted by PCR using primers, 5′-[…] […]-3′ (SEQ ID NO: 1) and 5′-AAAGCGGCCGCTCAA […]-3′ (SEQ ID NO: 2), from human heart cDNA library (Becton, Dickinson and Company). The PCR product was subjected to agarose gel (1%) electrophoresis, a 2.2 kb DNA fragment containing an ASK1 gene was recovered from the gel, and then digested with restriction enzymes, NotI and SalI, and inserted into a plasmid pFASTBAC1 (Invitrogen) to prepare a plasmid pFB-ASK1. The insert was verified by sequencing. Recombinant baculovirus was prepared according to the procedure of the Bac-to-Bac baculovirus expression system (Invitrogen).
Sf-21 cells were seeded to achieve 1×10^6 cells/mL in 100 mL of Sf-900 II SFM medium (Invitrogen) which contains 10% fetal calf serum and then cultured at 27° C. for 24 hrs. To express ASK1 in cells, 0.15 mL of the recombinant baculovirus virus stock was added to cells, and the then cultured for 60 hrs. The cells were separated from the culture solution by centrifugation at 3000 rpm for 10 min and washed once with PBS. The cells were suspended in 10 mL of lysis buffer (25 mM HEPES (pH 7.5), 1% Triton X, 130 mM NaCl, 1 mM EDTA, 1 mM DTT, 25 mM (3-glycerophosphate, Protease inhibitor complete (Roche), 1 mM sodium orthovanadate) and ruptured by four times of treatment with a homogenizer (POLYTRON) at 20000 rpm for 30 seconds. Active ASK1 protein was purified from a supernatant obtained by centrifugal separation at 40000 rpm for 45 min using anti-FLAG M2 Affinity Gel (Sigma).
Scintillation Assay for Measuring the Inhibitory Effect of Exemplified Compounds of the Invention Against ASK1
The test compounds (2.5 μL) dissolved in DMSO were added to wells containing 37.5 μL of the reaction solution (25 mM HEPES (pH 7.5), 10 mM magnesium acetate, 1 mM DTT) including 30 ng of active ASK1 protein and 1 μg of myelin basic protein (Wako), and incubated at room temperature for 5 min. To start the reaction, 10 μL of ATP solution (2.5 μM ATP, 0.1 μCi [γ-^32P]ATP) was added to wells. After incubating at room temperature for 30 min, the reaction was terminated by adding 50 μL of 20% TCA solution. The reaction solution was incubated at 4° C. for 30 min and an acid-insoluble fraction was transferred onto a GF/C filter (Packard) with Cell Harvester (Packard), and washed with 250 mM phosphoric acid. After drying at 45° C. for 60 min., 40 μL of Microscint 0 (Packard) was added and the radioactivity was measured with TopCount (Packard). The concentrations (IC50 value) of the test compounds necessary for 50% inhibition of kinase activity were calculated by PRISM 3.0 (Graphpad Software).

Row | SMILES | IC50 (ASK1 [1]) [nM] | IC50 (ASK1 [2]) [nM] | melting point [°C]
1 | CC(C)(O)c1ccc(C(=O)Nc2cc3c(ccn3CC3CC3)cn2)cc1 [Compound 9, N-(1-(cyclopropylmethyl)-1H-pyrrolo[3,2-c]pyridin-6-yl)-4-(2-hydroxypropan-2-yl)benzamide] | 237 | 81 | 
2 | CC(C)(O)c1ccc(C(=O)Nc2cc3c(cn2)c(Br)cn3CC2CC2)cc1 [Compound 10, N-(3-bromo-1-(cyclopropylmethyl)-1H-pyrrolo[3,2-c]pyridin-6-yl)-4-(2-hydroxypropan-2-yl)benzamide] | 62 | 3 | 
3 | CCn1cc(C)c2cnc(NC(=O)c3ccc(C(C)(C)O)cc3)cc21 [Compound 12, N-(1-ethyl-3-methyl-1H-pyrrolo[3,2-c]pyridin-6-yl)-4-(2-hydroxypropan-2-yl)benzamide] | 20 | 7 | 
4 | CCn1ccc2cnc(NC(=O)c3ccc([C@@](C)(O)CO)cc3)cc21 [Compound 13, (R)-4-(1,2-dihydroxypropan-2-yl)-N-(1-ethyl-1H-pyrrolo[3,2-c]pyridin-6-yl)benzamide] | 64 | 55 | 
5 | Cn1cc(Br)c2cnc(NC(=O)c3ccc([C@@](C)(O)CO)cc3)cc21 [Compound 16, (R)—N-(3-bromo-1-methyl-1H-pyrrolo[3,2-c]pyridin-6-yl)-4-(1,2-dihydroxypropan-2-yl)benzamide] | 20 | 7 | 
6 | C[C@](O)(CO)c1ccc(C(=O)Nc2cc3c(ccn3C3CC3)cn2)cc1 [Compound 17, (R)—N-(1-cyclopropyl-1H-pyrrolo[3,2-c]pyridin-6-yl)-4-(1,2-dihydroxypropan-2-yl)benzamide] | 214 | 69 | 
7 | Cc1cn(C)c2cc(NC(=O)c3ccc(C(C)(C)O)cc3)ncc12 [Compound 19, N-(1,3-dimethyl-1H-pyrrolo[3,2-c]pyridin-6-yl)-4-(2-hydroxypropan-2-yl)benzamide] | 29 | 19 | 
8 | CC(C)(O)c1ccc(C(=O)Nc2cc3c(ccn3CS(C)(=O)=O)cn2)cc1 [Compound 21, 4-(2-hydroxypropan-2-yl)-N-(1-(methylsulfonylmethyl)-1H-pyrrolo[3,2-c]pyridin-6-yl)benzamide] | 12400 |  | 
9 | Cn1cc(Cl)c2cnc(NC(=O)c3ccc(C(C)(C)O)cc3)cc21 [Compound 24, N-(3-chloro-1-methyl-1H-pyrrolo[3,2-c]pyridin-6-yl)-4-(2-hydroxypropan-2-yl)benzamide] | 18 | 11 | 
10 | Cn1c(Cl)c(Cl)c2cnc(NC(=O)c3ccc(C(C)(C)O)cc3)cc21 [Compound 25, N-(2,3-dichloro-1-methyl-1H-pyrrolo[3,2-c]pyridin-6-yl)-4-(2-hydroxypropan-2-yl)benzamide] | 146 | 60 | 
11 | CCn1ccc2cnc(NC(=O)c3ccc([C@@](C)(O)CO)c(C)c3)cc21 [Compound 27, (R)-4-(1,2-dihydroxypropan-2-yl)-N-(1-ethyl-1H-pyrrolo[3,2-c]pyridin-6-yl)-3-methylbenzamide] | 528 |  | 
12 | Cn1cc(Cl)c2cnc(NC(=O)c3ccc([C@](C)(O)CO)cc3)cc21 [Compound 29, (S)—N-(3-chloro-1-methyl-1H-pyrrolo[3,2-c]pyridin-6-yl)-4-(1,2-dihydroxypropan-2-yl)benzamide] | 38 |  | 210 to 212
13 | Cn1c(Cl)c(Cl)c2cnc(NC(=O)c3ccc([C@](C)(O)CO)cc3)cc21 [Compound 30, (S)—N-(2,3-dichloro-1-methyl-1H-pyrrolo[3,2-c]pyridin-6-yl)-4-(1,2-dihydroxypropan-2-yl)benzamide] |  |  | 205 to 208
14 | Cn1c(Cl)c(Cl)c2cnc(NC(=O)c3ccc([C@@](C)(O)CO)cc3)cc21 [Compound 32, (R)—N-(2,3-dichloro-1-methyl-1H-pyrrolo[3,2-c]pyridin-6-yl)-4-(1,2-dihydroxypropan-2-yl)benzamide] | 122 |  | 
15 | CCn1cc(Cl)c2cnc(NC(=O)c3ccc([C@@](C)(O)CO)c(C)c3)cc21 [Compound 33, (R)—N-(3-chloro-1-ethyl-1H-pyrrolo[3,2-c]pyridin-6-yl)-4-(1,2-dihydroxypropan-2-yl)-3-methylbenzamide] | 41 |  | 

Continued by falling IC50 (ASK1 [1]), values first:

Row | IC50 (ASK1 [1]) [nM] | IC50 (ASK1 [2]) [nM] | melting point [°C] | SMILES
16 | 17 | 14 |  | CCn1cc(C)c2cnc(NC(=O)c3ccc([C@@](C)(O)CO)cc3)cc21 [Compound 18, (R)-4-(1,2-dihydroxypropan-2-yl)-N-(1-ethyl-3-methyl-1H-pyrrolo[3,2-c]pyridin-6-yl)benzamide]
17 | 16 |  |  | CC(C)(CO)c1ccc(C(=O)Nc2cc3c(cn2)c(Cl)cn3C2CC2)cc1 [Compound 28, N-(3-chloro-1-cyclopropyl-1H-pyrrolo[3,2-c]pyridin-6-yl)-4-(1-hydroxy-2-methylpropan-2-yl)benzamide]
18 | 10 | 5 |  | Cn1cc(Br)c2cnc(NC(=O)c3ccc(C(C)(C)O)cc3)cc21 [Compound 15, N-(3-bromo-1-methyl-1H-pyrrolo[3,2-c]pyridin-6-yl)-4-(2-hydroxypropan-2-yl)benzamide]
19 | 10 | 2 |  | CCn1cc(Br)c2cnc(NC(=O)c3ccc([C@@](C)(O)CO)cc3)cc21 [Compound 20, (R)—N-(3-bromo-1-ethyl-1H-pyrrolo[3,2-c]pyridin-6-yl)-4-(1,2-dihydroxypropan-2-yl)benzamide]
20 | 8 | 3 |  | CCn1cc(Br)c2cnc(NC(=O)c3ccc(C(C)(C)O)cc3)cc21 [Compound 11, N-(3-bromo-1-ethyl-1H-pyrrolo[3,2-c]pyridin-6-yl)-4-(2-hydroxypropan-2-yl)benzamide]
21 | 7 | 2 |  | C[C@](O)(CO)c1ccc(C(=O)Nc2cc3c(cn2)c(Br)cn3C2CC2)cc1 [Compound 22, (R)—N-(3-bromo-1-cyclopropyl-1H-pyrrolo[3,2-c]pyridin-6-yl)-4-(1,2-dihydroxypropan-2-yl)benzamide]
22 | 6 | 4 |  | C[C@](O)(CO)c1ccc(C(=O)Nc2cc3c(cn2)c(Cl)cn3C2CC2)cc1 [Compound 23, (R)—N-(3-chloro-1-cyclopropyl-1H-pyrrolo[3,2-c]pyridin-6-yl)-4-(1,2-dihydroxypropan-2-yl)benzamide]
